Measured values published in patent US7582655B2, “Antineoplastic compounds” (University of Saskatchewan, priority 2005, dated 2009).
Like-named read-outs stand apart in the source and are kept apart here.

Columns and labels:
[1] = test system: murine L-5178 lymphoma cells transfected with the human MDR1 gene; assay: MDR reversal, rhodamine 123 fluorescence activity ratio; settings: FAR >1 indicates MDR reversal; for FAR value 4 μg/ml: compound 4 μg/ml; for FAR value 40 μg/ml: compound 40 μg/ml
Description: A solution of the test compound (2 mg/ml, 10 μl) in dimethylsulfoxide was added to aliquots of the cell suspension and incubated at room temperature for 10 minutes. […] The cells were washed twice and resuspended in PBS (pH 7.4) after which the fluorescence was measured using a Beckton Dickinson FACScan instrument. The fluorescence of the cells was measured in treated MDR cells (F1), untreated MDR cells (F2), treated parental cells (F3) […] were obtained from the following equation, viz (F1/F2)/(F3/F4).

[2] = test system: human squamous cell carcinomas HSC-2; assay: Cytotoxicity CC50, MTT assay, HSC-2
Description: (§1) In addition, the compounds were evaluated against human squamous cell carcinomas (HSC-2 and HSC-4) and human promyelocytic leukemia neoplasms (HL-60) and compared with normal cells, i.e. human gingival fibroblasts (HGF), human pulp cells (HPC) and human periodontal ligament fibroblasts (HPLF).
(§2) MTT stands for 3-(4,5-dimethylthiazol-2-yl)-2,5-diphenyltetrazolium bromide). The cells were incubated with varying concentrations of the compounds along with untreated cells for 24 h and the absorbance at 540 nm measured. In the case of the HL-60 assay, the trypan blue exclusion method was followed and cell viability was determined using a haemocytometer. The CC50 values were obtained from dose-response curves (Sakagami, H.; Satoh, K.; Ohata, H.; Takahashi, H.; Yoshida, H.; Iida, M.; Kuribayashi, N.; Sakagami, T.; Momose, K.; Takeda, M. Anticancer Res. 1996, 16, 2635-2644). The general methods used in culturing the cells employed in these cytotoxicity experiments have been described previously (Kawase, M.; Sakagami, H.; Motohashi, N.; Hauer, H.; Chatterjee, S. S.; Spengler, G.; Vigyikanne, A. V.; Molnár, A.; Molnár, J. In Vivo 2005, 19, 705-712; and Takeuchi, R.; Hoshijima, H.; Onuki, N.; Nagasaka, H.; Chowdhury, S. A.; Kawase, M.; Sakagami, H. Anticancer Res. 2005, 25, 4037-4042). In brief, the malignant cells were obtained from Professor Nagumo, Showa University, Japan. The HGF, HPC and HPLF cells were prepared from human periodontal tissue after obtaining informed consent according to the guidelines of Meikai University Ethics Committee, Japan (No. 0206). Since normal cells have a short lifespan, cells at the 3-7 population doubling time were used. With the exception of the HL-60 neoplasm, the cells were cultured in DMEM containing heat-inactivated FBS (10%) at 37° C. in a humidified carbon dioxide atmosphere and subcultured by trypsinization. The HL-60 cells were cultured in a similar fashion except that RPMI 1640 media was employed.

[3] = test system: human squamous cell carcinomas HSC-4; assay: Cytotoxicity CC50, MTT assay, HSC-4
Description: as §1, §2

[4] = test system: HGF, HPC and HPLF cells versus HSC-2, HSC-4 and HL-60 neoplasms; assay: Selectivity index, normal versus malignant cells; format: cell-based, human; settings: average CC50 of HGF, HPLF divided by average CC50 of HSC-2, HSC-4, HL-60
Description: as §1, §2

[5] = test system: human promyelocytic leukemia HL-60; assay: Cytotoxicity CC50, trypan blue exclusion, HL-60
Description: as §1, §2

human tumour cell lines = assay: Panel of human tumour cell lines, all cell lines (mean graph midpoint); format: cell-based; settings: for IC50: mean graph midpoint, average of 49 (38-59) human tumour cell lines, 48 h incubation, read-out: All cell lines IC50
Description: A number of compounds of the invention were further assessed against numerous human malignant cell lines. An average of 49 cell lines from nine different neoplastic diseases, namely leukemia, melanoma, non-small cell lung, colon, central nervous system, ovarian, renal, prostate, and breast cancers were employed.
(§3) In addition, both 5-fluorouracil and melphalan were evaluated towards 57 cell lines. […] MG MID is the average of the potencies of the compound to approximately 50 neoplastic cell lines.

SW 620 = assay: Human tumour cell line panel, colon cancer SW 620; format: cell-based; settings: read-out: Colon cancer cells, IC50(μM) SW 620
Description: as §3

RPMI 8226 = assay: Human tumour cell line panel, leukemic RPMI 8226; format: cell-based; settings: read-out: Leukemic cells, IC50(μM) RPMI 8226
Description: as §3

HL 60 = assay: Human tumour cell line panel, leukemic HL 60; format: cell-based; settings: read-out: Leukemic cells, IC50(μM) HL 60
Description: as §3

in vitro [6] = settings: human
Description: as §1, §2

KM 12 = assay: Human tumour cell line panel, colon cancer KM 12; format: cell-based; settings: read-out: Colon cancer cells, IC50(μM) KM 12
Description: as §3

HCT 116 = assay: Human tumour cell line panel, colon cancer HCT 116; format: cell-based; settings: read-out: Colon cancer cells, IC50(μM) HCT 116
Description: as §3

SR = assay: Human tumour cell line panel, leukemic SR; format: cell-based; settings: 48 h, read-out: Leukemic cells, IC50(μM) SR
Description: as §3

in vitro [7] = settings: human; remark: listed apart in the source
Description: as §1, §2

HCC 2998 = assay: Human tumour cell line panel, colon cancer HCC 2998; format: cell-based; settings: read-out: Colon cancer cells, IC50(μM) HCC 2998
Description: as §3

HCT 15 = assay: Human tumour cell line panel, colon cancer HCT 15; format: cell-based; settings: read-out: Colon cancer cells, IC50(μM) HCT 15
Description: as §3

in vitro [8] = settings: human; remark: listed apart in the source
Description: as §1, §2

K 562 = assay: Human tumour cell line panel, leukemic K 562; format: cell-based; settings: read-out: Leukemic cells, IC50(μM) K 562
Description: as §3

COLO 205 = assay: Human tumour cell line panel, colon cancer COLO 205; format: cell-based; settings: read-out: Colon cancer cells, IC50(μM) COLO 205
Description: as §3

[9] = test system: HSC-2, HSC-4 and HL-60 malignant cells; assay: Average CC50 for malignant cells
Description: as §1, §2

[10] = test system: human gingival fibroblasts (HGF); assay: in vitro
Description: as §1, §2

human pulp cells (HPC) = assay: in vitro
Description: as §1, §2

[11] = test system: human periodontal ligament fibroblasts (HPLF); assay: in vitro
Description: as §1, §2

mice = settings: five consecutive daily doses of 240 mg/kg; cited from earlier work
[12] = test system: murine lymphocytic leukemia P388/MRI cell line; settings: cited from earlier work
[13] = test system: synthetic DNA, poly(d(AT)); settings: cited from earlier work
[14] = Homo sapiens, HSC-2, 24 h, read-out: CC50(μM) HSC-2
[15] = Homo sapiens, HSC-4, 24 h, read-out: CC50(μM) HSC-4
[16] = Homo sapiens, HL-60, 24 h, read-out: CC50(μM) HL-60

Compound | FAR value 4 μg/ml [1] | FAR value 40 μg/ml [1] | CC50 [2, 14] [µM] | CC50 [3, 15] [µM] | SI (selectivity index) [4] | CC50 [5, 16] [µM] | IC50 (human tumour cell lines) [µM] | CC50(μM) ave [9] [µM] | IC50 (SW 620; 48 h) [µM] | CC50 [2] [µM] | IC50 (RPMI 8226; 48 h) [µM] | IC50 (HL 60; 48 h) [µM] | CC50 [10] [µM] | IC50 (KM 12; 48 h) [µM] | IC50 (HCT 116; 48 h) [µM] | IC50 (SR) [µM] | CC50 (human pulp cells (HPC)) [µM] | CC50 [3] [µM] | IC50 (HCC 2998; 48 h) [µM] | IC50 (HCT 15; 48 h) [µM] | also measured
CCN(CC)CCOc1ccc(C(=O)N2CC(=Cc3ccc([N+](=O)[O-])cc3)C(=O)C(=Cc3ccc([N+](=O)[O-])cc3)C2)cc1.Cl [Compound 4c, 1-[4-(2-Diethylaminoethoxy)phenylcarbonyl]-3,5-bis(4-nitrophenylmethylene)-4-piperidone hydrochloride] | 77.5 | 14.1 | 0.98 | 1.1 | 6.6 | 0.26 | – | – | – | – | – | – | – | – | – | – | – | – | – | – | –
CCN(CC)CCOc1ccc(C(=O)N2CC(=Cc3ccc(C)cc3)C(=O)C(=Cc3ccc(C)cc3)C2)cc1.Cl [Compound 4d, 1-[4-(2-Diethylaminoethoxy)phenylcarbonyl]-3,5-bis(4-methylphenylmethylene)-4-piperidone hydrochloride] | 106 | 66.6 | 2.2 | 2.3 | 3.3 | 0.79 | – | – | – | – | – | – | – | – | – | – | – | – | – | – | –
Cl.O=C1C(=Cc2ccc(Cl)cc2)CN(C(=O)c2ccc(OCCN3CCCCC3)cc2)CC1=Cc1ccc(Cl)cc1 [Compound 5b, 3,5-bis(4-Chlorophenylmethylene)-1-[4-{2-(1-piperidinyl)ethoxy}phenylcarbonyl]-4-piperidone hydrochloride] | 157 | 133 | 110 | 48 | >5.2 | 63 | > 11.5 | – | – | – | – | – | – | – | – | – | – | – | – | – | S.I. (selectivity index) (human tumour cell lines; ratio of the IC50 figures for the least and most sensitive cell lines): >66.1; IC50 (SW 620; Homo sapiens, SW-620, 48 h): 3.55 µM; IC50 (RPMI 8226; Homo sapiens, RPMI-8226, 48 h): 0.759 µM; IC50 (HL 60; Homo sapiens, HL-60, 48 h): 20.4 µM; CC50 at 24 h (in vitro [6]): > 400 µM; IC50 (KM 12; Homo sapiens, KM12, 48 h): 19.1 µM; IC50 (HCT 116; Homo sapiens, HCT-116, 48 h): 47.9 µM; IC50 (SR; Homo sapiens, SR): 2.29 µM; CC50 at 24 h (in vitro [7]): > 400 µM; IC50 (HCC 2998; Homo sapiens, HCC 2998, 48 h): 1.58 µM; IC50 (HCT 15; Homo sapiens, HCT-15, 48 h): 49 µM; CC50 at 24 h (in vitro [8]): 340 µM; IC50 (K 562; Homo sapiens, K562, 48 h): 4.37 µM; IC50 (COLO 205; Homo sapiens, COLO 205, 48 h): 15.8 µM
CC[N+](C)(CC)CCOc1ccc(C(=O)N2CC(=Cc3ccccc3)C(=O)C(=Cc3ccccc3)C2)cc1.[I-] [Compound 7a, 1-[4-(2-Diethylaminoethoxy)phenylcarbonyl]-3,5-bis(phenylmethylene)-4-piperidone methoiodide] | 1.37 | 1.05 | – | – | – | – | > 41.7 | 98 | 30.2 | 130 | 17.4 | > 50.1 | 160 | 43.7 | > 50.1 | 38 | 170 | 82 | 28.2 | > 50.1 | CC50 [11]: 79 µM; IC50 (K 562; 48 h): 43.7 µM; IC50 (COLO 205; 48 h): 20.4 µM; CC50 [5]: 82 µM
CC[N+](C)(CC)CCOc1ccc(C(=O)N2CC(=Cc3ccc(C)cc3)C(=O)C(=Cc3ccc(C)cc3)C2)cc1.[I-] [Compound 7d, 1-[4-(2-Diethylaminoethoxy)phenylcarbonyl]-3,5-bis(4-methylphenylmethylene)-4-piperidone methoiodide] | 1.93 | 114 | – | – | – | – | 7.76 | 17 | 10.5 | 17 | 1.26 | 11.8 | 34 | 9.33 | 14.1 | 22.9 | 29 | 17 | 6.17 | 9.33 | CC50 [11]: 8.3 µM; IC50 (K 562; 48 h): 1.35 µM; IC50 (COLO 205; 48 h): 8.91 µM; CC50 [5]: 16 µM
O=C1C(=Cc2ccccc2)CNCC1=Cc1ccccc1 [Compound B1] | – | – | – | – | – | – | – | – | – | – | – | – | – | – | – | – | – | – | – | – | Fatalities in mice (mice): did not induce fatalities; Cytotoxic activity [12]: possesses cytotoxic activity; Binding to poly(d(AT)) [13]: does bind
